Columns and labels:
SIM/SMR promoters = assay: SIM/SMR promoter:GUS transcriptional reporter lines; type: in vivo, Arabidopsis thaliana
Source text: SIM/SMR promoter sequences were amplified from genomic DNA by PCR using the primers described in Table 5. The product fragments were created with the Pfu DNA Polymerase Kit (Promega, Catalog #M7745), and were cloned into a pDONR P4-Plr entry vector by BP recombination cloning and subsequently transferred into the pMK7S*NFml4GW,0 destination vector by LR cloning, resulting in a transcriptional fusion between the promoter of the SMR genes and the nlsGFP-GUS fusion gene (Karimi et al., 2007). For the overexpression constructs, the SMR coding regions were amplified using primers described in Table 5, and cloned into the pDONR221 vector by BP recombination cloning and subsequently transferred into the pK2GW7 destination vector (Kamimi et al., 2002) by LR cloning. All constructs were transferred into the Agrobacterium tumefaciens C58C1RifR strain harboring the pMP90 plasmid. The obtained Agrobacterium strains were used to generate stably transformed Arabidopsis lines with the floral dip transformation method (Clough and Bent, 1998). Transgenic plants were obtained on kanamycin-containing medium and later transferred to soil for optimal seed production.
Complete seedlings or tissue cuttings were stained in multiwell plates (Falcon 3043; Becton Dickinson). GUS assays were performed as described by Beeckman and Engler (1994). Samples mounted in lactic acid were observed and photographed with a stereomicroscope (Olympus BX51 microscope) or with a differential interference contrast (DIC) microscope (Leica).
To confirm involvement of SIM/SMR genes in the genotoxic stress response, transcriptional reporter lines containing the putative upstream promoter sequences were constructed for all. After selection of representative reporter lines, one-week-old seedlings were transferred to control medium, or medium supplemented with HU (resulting into stalled replication forks) or bleomycin (causing DSBs).

[1] = tested on: root meristem material of seedlings; conditions: 0.3 μg/mL bleomycin for 24 hours
Method: Seeds were plated on sterilized membranes and grown under a 16-hour light/8-hour dark regime at 21° C. After 2 days of germination and 5 days of growth, the membrane was transferred to MS medium containing 0.3 μg/mL bleomycin for 24 hours. Triplicate batches of root meristem material seedlings were harvested for total RNA preparation using the RNEASY® plant mini kit (Qiagen). Each of the different root tip RNA extracts were hybridized to 12 AFFYMETRIX® Arabidopsis Gene 1.0 ST Arrays according to manufacturer's instructions at the Nucleomics Core Facility (Leuven, Belgium; World Wide Web at nucleomics.be). Raw data were processed with the RMA algorithm (Irizarry et al., 2003) using the AFFYMETRIX® Power Tools and subsequently subjected to a Significance Analysis of Microarray (SAM) analysis with “MultiExperiment Viewer 4” (MeV4) of The Institute for Genome Research (TIGR) (Tusher et al., 2001). The imputation engine was set as 10-nearest neighbor imputer and the number of permutations was 100. Expression values were obtained by log 2-transforming the average value of the normalized signal intensities of the triplicate samples. Fold changes were obtained using the expression values of the treatment relative to the control samples. Genes with Q-values<0.1 and fold change>1.5 or <0.666 were retained for further analysis.

[2] = root meristem, treatment relative to control

Substance: bleomycin
- induction of SMR6 reporter in root tips (SIM/SMR promoters; one-week-old seedlings, 0.3 μg/mL bleomycin, GUS assay after 24 hours): weak cell-specific induction
- induction of SMR5 and SMR7 GUS reporters in the proliferating leaf (SIM/SMR promoters; treated for 24 hours): induced
- Bleomycin fold change, AT1G07500 (Siamese-related 5) [1, 2]: 1.595
- Bleomycin fold change, AT1G13330 (Hop2 homolog) [1, 2]: 1.580
- Bleomycin fold change, AT1G17460 (TRF-like 3) [1, 2]: 1.681
- Bleomycin fold change, AT1G49030 (PLAC8 family protein) [1, 2]: 2.653
- Bleomycin fold change, AT2G18600 (Ubiquitin-conjugating enzyme family protein) [1, 2]: 1.972
- Bleomycin fold change, AT2G45460 (SMAD/FHA domain-containing protein) [1, 2]: 1.575
- Bleomycin fold change, AT2G46610 (RNA-binding RRM/RBD/RNP motifs family protein) [1, 2]: 1.546
- Bleomycin fold change, AT3G07800 (Thymidine kinase) [1, 2]: 2.759
- Bleomycin fold change, AT3G25250 (AGC kinase family protein) [1, 2]: 1.517
- Bleomycin fold change, AT3G27060 (Ferritin/ribonucleotide reductase-like family protein) [1, 2]: 1.970
- Bleomycin fold change, AT3G27620 (alternative oxidase 1C) [1, 2]: 1.883
- Bleomycin fold change, AT3G27950 (GDSL-like Lipase/Acylhydrolase superfamily protein) [1, 2]: 4.012
- Bleomycin fold change, AT4G02390 (Poly(ADP-ribose) polymerase) [1, 2]: 2.663
- Bleomycin fold change, AT4G04750 (Major facilitator superfamily protein) [1, 2]: 1.689
- Bleomycin fold change, AT4G05370 (BCS1 AAA-type ATPase) [1, 2]: 1.807
- Bleomycin fold change, AT4G15480 (UDP-Glycosyltransferase superfamily protein) [1, 2]: 2.394
- Bleomycin fold change, AT4G21070 (Breast cancer susceptibility1) [1, 2]: 2.386
- Bleomycin fold change, AT4G22960 (Unknown function DUF544) [1, 2]: 2.282
- Bleomycin fold change, AT5G03780 (TRF-like 10) [1, 2]: 1.600
- Bleomycin fold change, AT5G14920 (Gibberellin-regulated family protein) [1, 2]: 2.122
- Bleomycin fold change, AT5G20850 (RAS associated with diabetes protein 51) [1, 2]: 1.765
- Bleomycin fold change, AT5G24280 (Gamma-irradiation and mitomycin c induced 1) [1, 2]: 2.584
- Bleomycin fold change, AT5G25810 (Integrase-type DNA-binding superfamily protein) [1, 2]: 1.573
- Bleomycin fold change, AT5G40840 (Rad21/Rec8-like family protein) [1, 2]: 1.692
- Bleomycin fold change, AT5G48720 (X-ray induced transcript 1) [1, 2]: 2.228
- Bleomycin fold change, AT5G49110 (unknown protein) [1, 2]: 1.562
- Bleomycin fold change, AT5G49480 (Ca2+-binding protein 1) [1, 2]: 1.580
- Bleomycin fold change, AT5G55490 (Gamete expressed protein 1) [1, 2]: 2.407
- Bleomycin fold change, AT5G60100 (pseudo-response regulator 3) [1, 2]: 1.801
- Bleomycin fold change, AT5G60250 (Zinc finger C3HC4-type RING finger family protein) [1, 2]: 2.352
- Bleomycin fold change, AT5G64060 (NAC domain containing protein 103) [1, 2]: 2.153
- Bleomycin fold change, AT5G66130 (RADIATION SENSITIVE 17) [1, 2]: 1.627
- Bleomycin fold change, AT5G66985 (unknown protein) [1, 2]: 1.612
- induction of SMR7 (At3g27630) in the bleomycin experiment ([1]; Aragene array): 5.68 fold

Source: patent US20160272992A1, “PROTECTION OF PLANTS AGAINST OXIDATIVE STRESS” (priority 2013, published 2016)
